The values that follow come from a melting point compilation (Tetko et al.; mined from patent text by program, amines drawn as free bases though some values may be those of a salt).

By melting point is commonly meant the temperature of the solid-liquid transition. As for `CCOC(C)OCC(C)C1CCC2C3C=CC4=CC(=O)C5OC5C4(C)C3CCC12C` (centres undefined), the melting point fell in the range of 91 to 93 °C.
The molecule `CCOC(=O)CCCN=c1sc2ccccc2s1` yielded a melting point of 35 to 36 °C.
With `CC(=O)NCCC(=O)Nc1cccc(-c2cc(-c3ccc(Cl)cc3O)nc(NC(=O)c3cccs3)c2C#N)c1` the figure was 209 to 210 °C.
With `ClCCN(CCCl)CCOc1ccc(Nc2c3ccccc3nc3c(OCCN(CCCl)CCCl)cccc23)cc1` the figure was 105 to 106 °C; with `CCSC1=C(C#N)C(c2ccccc2)(c2ccccc2)C(=O)N1CCCBr`, 97 °C; with `CCOC(=O)c1cc(F)c(SCC)nc1NCc1ccc(OC)cc1`, 59 °C.
Next, `CSc1nc(F)cc2nnc(SCc3ccccc3)n12`: 74 to 77 °C; `CN(Cc1cc2c(=O)c(C(=O)NCc3ccc(Cl)cc3)cn(C)c2o1)CC(O)c1ccoc1` (centres undefined): 93 to 97 °C; `Cc1ccc(-c2ccc3c(c2)C=C(C(=O)Nc2ccc(CN4CCCCC4)cc2)CCS3)cc1`: 203 to 204 °C.
In turn, `COCOc1cccc(NC(=O)OC(C)(C)C)c1I` gave a melting point of 82 to 84 °C.
With `Cc1cc(OC2CCCC2)ccc1NC(=O)OC(C)(C)C` the figure was 75 to 77 °C.
For `O=C(c1cccs1)c1cnn2c(-c3cccc(-n4cccc4)c3)ccnc12`, the melting point was in the range of 211 to 213 °C.
Next, `CC1CC=NN1C(=O)c1cnccn1` (centres undefined): 77 to 79 °C; `O=C1COCC(=O)N1CCCCCCN1CCCCC1`: 121 to 122 °C; `CCCCCCc1ccc(C=Nc2ccc(C#N)cc2)cc1`: 32.2 to 33 °C.
Next, `COC(=O)c1ccc(CNC(=O)C2Cc3ccccc3N2S(=O)(=O)c2ccc(-c3cccc(C(F)(F)F)c3)cc2)cc1` (centres undefined): 70 °C.
Next, `CCOC(=O)c1cc(C)n(-c2cccc(Cl)c2)c1-c1ccccc1`: 93.2 to 94.6 °C; `COC(=O)/C=C/c1cc(Br)cs1`: 63 to 67 °C.
As for `COc1ccc(COc2cccnc2NC(=S)Nc2ccc(Cl)cc2)c(F)c1`, the melting point was 138 to 140 °C.
With `Cc1cc(O)ccc1COCCn1ccnn1` the figure was 92 to 93 °C; with `CC(C)CC(=O)OC1c2ccccc2C(=O)N1c1ccc2ccc(Cl)nc2n1` (centres undefined), 154 °C.
Molecule `CC(C)(C)c1ccccc1N1CCN(C(=O)c2ncoc2CCC(=O)O)CC1` gave a melting point of 180 to 181 °C.
Next, `COC(=O)NC(C)(C)c1ccc(CC#N)cc1`: 88 to 90 °C.
With `O=c1oc(-c2cccc(F)c2)nc2cccc(Cl)c12` the figure was 120 to 123 °C; with `COc1ccc(Cl)cc1C(=O)NCCc1ccc(C(C)=CCC(=O)O)cc1`, 180 to 183 °C; with `Cc1ccc2c(c1)c1cc(-c3cccc(Br)c3)c(=O)n(C)c1n2C`, 215 to 216 °C.
Next, `COC(=O)CCc1ccc(N2CCN(c3ccc(C(=N)NC(=O)OC)cc3)S2(=O)=O)cc1`: above 275 °C; `O=CN(O)C1(CS(=O)(=O)c2ccc(Oc3ccc(OC(F)(F)F)cc3)cc2)CCC(C(=O)O)CC1` (centres undefined): 207 °C.
As to `CC(=O)O[C@H]1C=C[C@@H](O)C1`, the melting point is 48 to 49 °C.
The molecule `O=C(Nc1ccccc1)N1CCC(c2nn(-c3ccccc3)c3cc(F)ccc23)CC1` registered a melting point of 163 to 165 °C.
With `O=S(=O)(Nc1ncnc(Cl)c1Cc1cccc2ccccc12)c1ccc(Cl)cc1` the figure was 202 to 203 °C.
Molecule `O=C(CCl)c1scc(Br)c1Br` gave a melting point of 86 to 88 °C.
With `CCOc1ccc(SCCSc2ccc(OCC)cc2)cc1` the figure was 90 °C.
With `CC1CC(=O)NN=C1c1ccc(NC(=O)C2(C)CC2)cc1` (centres undefined) the figure was 235 to 237 °C; with `Cc1cc2cnnc(OCc3ccc(F)cc3)c2n1Cc1ccccc1`, 127 to 132 °C.
With `O=CN1CCN(c2nc3ccc(Cl)ccc-3n2)CC1` the figure was 228 to 229 °C.
In turn, `Brc1ccc2cc(N(c3ccccc3)c3ccccc3)ccc2c1` registered a melting point of 136 to 137 °C.
With `COc1ccc2ccc(N3C(=O)c4ccccc4C3OCC(=O)NC3CCCCC3)nc2n1` (centres undefined) the figure was 175 °C; with `O=[N+]([O-])c1cc2nc(O)c(O)nc2c2ncccc12`, above 300 °C; with `CC1(C)SC(=O)C2OC=C(Br)C=C21` (centres undefined), 63 to 72 °C.
Regarding `Ic1cccc2cc3ccccc3cc12`, the melting point lay within 152 to 154 °C.
Next, `Cc1c(C2=CCC(c3ccccc3)(N(C)C)CC2)[nH]c2ccc(C#N)cc12` (centres undefined): 180 to 185 °C.
Next, `Cc1cc2ccc(Cl)cc2[nH]1`: 120 to 122 °C; `C=CCn1c(=O)c(C(=O)OCC)c(O)c2cnc(-c3ccccc3)nc21`: 174 to 175 °C; `CCOC(=O)c1c(Oc2ccc(Cl)cc2[N+](=O)[O-])c2ccccc2n1C`: 133 to 134 °C.
Next, `COc1cc(-c2ccc(C(F)(F)F)cc2)c(C(C)=NOCc2ccc([N+](=O)[O-])cc2)cc1O`: 112 to 114 °C; `CC(C)(C)c1ccc(NC(=O)Nc2ccc(Oc3cc(NCc4ccccc4)ncn3)cc2)cc1`: 118 to 120 °C; `CCCCCCC(O)CNCCCCCCNCC(O)CCCCCC` (centres undefined): 124 to 127 °C.
With `Cc1cc(C2=NOC(c3cc(Cl)cc(Cl)c3)(C(F)(F)F)C2)ccc1C(=O)Nc1cncnc1` (centres undefined), the melting point fell in the range of 207 to 211 °C.
In turn, `CCNC(=S)NCCSCc1[nH]cnc1C` showed a melting point of 140 to 141 °C.
With `Cc1cc(-c2ccc(C(F)(F)F)cc2)nc(-c2ccc(C(=O)O)cc2)n1` the figure was 272 to 275 °C.
`NC(N)=Nc1nc(-c2cccc(CNC(=O)C3CCCNC3)n2)cs1` (centres undefined) came in with a melting point of 227 to 228 °C.
With `CS(=O)(=O)Nc1ccc(Cl)cc1C(=Cc1ccc2ccccc2c1)C(N)=O` the figure was 179 to 184 °C.
Next, `CN1CCN(C(=NNS(=O)(=O)c2ccccc2)c2ccc(Cl)cc2Cl)CC1`: 174 to 176 °C; `O=C(Cn1c(-c2ccc(Br)cc2)nc2cccnc21)Nc1ccccn1`: 192 to 195 °C; `COc1cc(/C=C/C(=O)/C=C/c2cc(OC)c(O)c(OC)c2)cc(OC)c1O`: 166 to 168 °C.
Molecule `CCOCn1c(C(=O)c2ccccc2)c(CC)c(=O)[nH]c1=O` came in with a melting point of 133 to 134 °C.
In the case of `CN1C(=O)CCC(C)(C)c2cc(Nc3ncc(Cl)c(N[C@H]4[C@@H](C(N)=O)[C@@H]5C=C[C@H]4C5)n3)ccc21`, the melting point turned out to be 233 °C.
In the case of `CCOC(Cc1ccc2oc(CN3c4ccccc4Sc4ccccc43)cc2c1)C(=O)O` (centres undefined), the melting point was in the range of 120 to 121 °C.
With `c1ccc2c(c1)CN(NC1=NCCO1)C2` the figure was 220 to 223 °C.
With `COc1ccc2c(c1)C(=O)N(c1ccc3cnn(C)c3c1)C2` the figure was 175 to 177 °C.
`BrCc1cc(CBr)cc(CBr)c1` gave a melting point of 95.5 to 97.5 °C.
Next, `COc1ccc(-c2csc(Nc3ccncc3)n2)cc1OC`: 205 to 207 °C; `CCCCCCCCCCCCCCCCCC(=O)SC1CCN(C(C(=O)OC)c2ccccc2F)CC1` (centres undefined): 50 to 52 °C.
With `C=CC[C@H]1C(=O)N(S(=O)(=O)c2ccc3ccccc3c2)[C@H]2CCN(C(=O)OCc3ccccc3)[C@H]12` (relative stereo) the figure was 158 to 160 °C; with `CC(C)(C)c1cc(CO)n(Cc2ccc(C(F)(F)F)cc2Cl)n1`, 115 to 117 °C.
With `COc1ccc(N2C(=O)C(O[Si](C(C)C)(C(C)C)C(C)C)C2C=Cc2ccco2)cc1` (centres undefined) the figure was 104 to 106 °C; with `CCC(O)(c1ccc(OCCCN2CCC(C)CC2)cc1)c1ccccc1OC` (centres undefined), 82 to 83 °C; with `O=C1Cc2cc(C(=O)c3ccccc3)ccc2N1`, 204 to 205 °C.
`O=C(O)C(=O)c1ccc(OCCCCc2ccncc2)cc1` yielded a melting point of 198 to 199 °C.
Molecule `COc1ccc(-c2cccc3[nH]c4c(c23)CCN(Cc2ccccc2)CC4)c(C)c1` displayed a melting point of 177 to 178 °C.
Next, `CCCCN(CCCC)c1ccc(C=Cc2cc(C)c(C=CC3=C(C#N)C(=C(C#N)C#N)OC3(c3ccccc3)C(F)(F)F)cc2C)c(OC)c1` (centres undefined): 177 to 179 °C.
Turning to `COc1cc(OCC(=O)O)cc2c1C(=O)CC1(CCCCC1)S2`, the melting point lay within 195 to 196 °C.
Next, `CC1(C)CCC(C)(C)c2c(O)ccc(O)c21`: 114 °C.
Molecule `O=c1[nH]c2cc(C(F)(F)F)cc3c2n(c1=O)C(P(=O)(O)O)CC3` (centres undefined) gave a melting point of 262 °C.
Next, `CC(C)(C)NC(=O)[C@H](Cc1ccc(OCc2c(Cl)cccc2Cl)cc1)NC(=O)OC(C)(C)C`: 82 to 86 °C; `Nc1sc(-c2cc(F)cc(F)c2)c(CN(C2CCCCC2)C2CCCCC2)c1C(=O)c1ccc(Cl)cc1`: 163 to 166 °C.
Next, `Fc1ccc(F)c(-c2nc(-c3ccccn3)no2)c1`: 120 to 126 °C; `CCOP(=O)(/C=C/c1cn(-c2ccccc2)nc1OCc1ccccc1)OCC`: 89 to 90 °C; `Nc1ncnc2nc(-c3cccc(Cl)c3)cnc12`: 260 to 264 °C.
Turning to `CCC1C(=O)Oc2c(Oc3ccccc3Cl)cccc21` (centres undefined), the melting point fell in the range of 78 to 79 °C.
Next, `COc1cc(C#N)ccc1-c1cc(-c2cccc(C#N)c2)on1`: 202 to 204 °C; `Brn1nnc2c3scnc3ccc21`: 282 to 285 °C.
Next, `COC(=O)C1=C(SCc2ccc(OC)cc2)C2=C(CC=CC=C2)CC1`: 79 to 81 °C; `COc1ccc(C=CC(=O)c2c(OC)cc(OC)cc2OP(=O)(O)O)cc1`: 71 to 73 °C.
Next, `COCCOc1ccc(CCCOC(=O)NS(=O)(=O)NCCC(C)C)c(Oc2ncc(C(F)(F)F)cc2Cl)c1`: 123 to 124 °C; `CN1c2ccc(F)cc2C(c2ccccc2)=NCC1CCl` (centres undefined): 173 to 188 °C.
Molecule `COC(=O)C=C(Nc1coc2cc(OC)ccc2c1=O)C(=O)OC` returned a melting point of 134 to 138 °C.
Next, `O=c1[nH]nc(Cl)cc1Nc1ccncn1`: above 300 °C.
